Laboratory results as given in patent publication US20100286145A1, “ISOPHTHALAMIDE DERIVATIVES INHIBITING BETA-SECRETASE ACTIVITY” (CoMentis, Inc., priority 2007, published 2010).
Read-outs that look alike come from different tables or passages of the source.

Molecular target: memapsin 2 (Homo sapiens, UniProt P56817)
Assay: Inhibition of memapsin 2 beta-secretase activity (fluorogenic substrate FS-2)
Assay type: biochemical
Conditions: memapsin 2, pH 4, 37° C., read-out: M2Ki
Description: Potency of compounds were determined by measurement of their inhibition of memapsin 2 activity toward a fluorescent substrate. Kinetic inhibition experiments were performed using the procedure as described in Ermolieff, et al. (Biochemistry 39:12450-12456 (2000), the teachings of which are incorporated hereby in their entirety). Briefly, assays were performed at pH 4, 37° C., by pre-incubation of memapsin 2 enzyme with compound for 20 minutes. Activity measurements were initiated by addition of a fluorogenic substrate FS-2 (Bachem Americas, Torrance, Calif.) MCA-SEVNLDAEFR-DNP (SEQ ID NO.: 2). The substrate was derived from 10 amino acids of the human amyloid precursor protein (APP), with the Swedish variant amino acids at the beta-secretase cleavage site. The terminal amino acid was modified from arginine to lysine to facilitate derivatization with a functional group for detection by autofluorescence. The amino acid sequence of the “core” peptide of the substrate is SEVNLDAEFK (SEQ ID NO.: 3). The amino terminus was derivatized with (7-methoxycoumarin-4-yl)acetyl (MCA), and the epsilon amine of the lysine side chain of the terminal residue (K in sequence SEVNLDAEFK (SEQ ID NO.: 3)) was derivatized with 2,4-dinitorphenyl (DNP).
Fluorescent signal increase over time was measured as a rate of hydrolysis of the peptide substrate. Inhibition of hydrolytic rate was expressed relative to uninhibited controls and fit to a model for tight-binding inhibitors (J. Bieth, in “Proteinase Inhibitors,” Bayer Symposium V, 463-469, 1974, which is herein incorporated by reference for all purposes in its entirety).

memapsin 2, sequence (P56817 46-501): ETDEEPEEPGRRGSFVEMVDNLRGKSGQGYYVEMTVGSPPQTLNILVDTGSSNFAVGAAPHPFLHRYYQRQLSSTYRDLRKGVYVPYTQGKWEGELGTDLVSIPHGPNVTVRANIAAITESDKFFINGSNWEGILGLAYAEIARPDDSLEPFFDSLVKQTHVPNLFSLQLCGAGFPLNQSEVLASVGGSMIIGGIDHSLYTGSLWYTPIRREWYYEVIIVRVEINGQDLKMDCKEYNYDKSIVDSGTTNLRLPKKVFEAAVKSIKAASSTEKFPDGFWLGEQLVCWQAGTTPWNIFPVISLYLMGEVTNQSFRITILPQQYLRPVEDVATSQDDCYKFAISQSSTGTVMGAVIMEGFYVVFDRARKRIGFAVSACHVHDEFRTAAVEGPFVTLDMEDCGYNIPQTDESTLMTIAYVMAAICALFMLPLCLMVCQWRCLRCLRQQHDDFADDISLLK

SMILES | Ki (fluorogenic substrate FS-2) | Ki (20 minutes pre-incubation)
Cc1csc(CN(C)C(=O)c2cccc(C(=O)N[C@@H](Cc3ccccc3)[C@H](O)CNCc3cc(-c4ccncc4)cc(C(F)(F)F)c3)c2)n1 [Compound 275, N1-((2S,3R)-3-hydroxy-1-phenyl-4-(3-(pyridin-4-yl)-5-(trifluoromethyl)benzylamino)butan-2-yl)-N3-methyl-N3-((4-methylthiazol-2-yl)methyl)isophthalamide] | < 0.3 µM | –
Cc1csc(CN(C)C(=O)c2cccc(C(=O)N[C@@H](Cc3ccccc3)[C@H](O)CNCc3cccc(C(F)(F)F)c3O)c2)n1 [Compound 291, N1-((2S,3R)-3-hydroxy-4-(2-hydroxy-3-(trifluoromethyl)benzylamino)-1-phenylbutan-2-yl)-N3-methyl-N3-((4-methylthiazol-2-yl)methyl)isophthalamide] | > 0.501 µM | –
COc1cccc(CNC[C@@H](O)[C@H](Cc2ccccc2)NC(=O)c2cc(C(=O)NCc3nccc(C)n3)cc(N(C)S(C)(=O)=O)c2)c1 [Compound 105, N1-((2S,3R)-3-hydroxy-4-(3-methoxybenzylamino)-1-phenylbutan-2-yl)-5-(N-methylmethylsulfonamido)-N3-((4-methylpyrimidin-2-yl)methyl)isophthalamide] | – | > 0.501 µM
CN(Cc1nc(C(F)F)cs1)C(=O)c1cccc(C(=O)N[C@@H](Cc2ccccc2)[C@H](O)CNCc2cncc(C(C)(C)F)c2)c1 [Compound 286, N1-((4-(difluoromethyl)thiazol-2-yl)methyl)-N3-((2S,3R)-4-((5-(2-fluoropropan-2-yl)pyridin-3-yl)methylamino)-3-hydroxy-1-phenylbutan-2-yl)-N1-methylisophthalamide] | < 0.3 µM | –
CCN(CC)c1cccc(CNC[C@@H](O)[C@H](Cc2ccccc2)NC(=O)c2cccc(C(=O)N(C)Cc3nc(C)cs3)c2)c1 [Compound 152, N1-((2S,3R)-4-(3-(diethylamino)benzylamino)-3-hydroxy-1-phenylbutan-2-yl)-N3-methyl-N3-((4-methylthiazol-2-yl)methyl)isophthalamide] | – | < 0.3 µM
Cc1csc(CN(C)C(=O)c2cccc(C(=O)N[C@H](Cc3ccccc3)[C@@H](O)CNCc3cncc(C(C)C)c3)c2)n1 [Compound 128, N1-((2R,3S)-3-hydroxy-4-((5-isopropylpyridin-3-yl)methylamino)-1-phenylbutan-2-yl)-N3-methyl-N3-((4-methylthiazol-2-yl)methyl)isophthalamide] | – | > 0.501 µM
COc1cccc(CNC[C@@H](O)[C@H](Cc2ccccc2)NC(=O)c2cccc(C(=O)Nc3nc(C)cs3)c2)c1 [Compound 80, N1-((2S,3R)-3-hydroxy-4-(3-methoxybenzylamino)-1-phenylbutan-2-yl)-N3-(4-methylthiazol-2-yl)isophthalamide] | – | > 0.501 µM
COc1ccc(C(F)(F)F)cc1CNC[C@@H](O)[C@H](Cc1ccccc1)NC(=O)c1cccc(C(=O)N(C)Cc2nc(C)cs2)c1 [Compound 282, N1-((2S,3R)-3-hydroxy-4-(2-methoxy-5-(trifluoromethyl)benzylamino)-1-phenylbutan-2-yl)-N3-methyl-N3-((4-methylthiazol-2-yl)methyl)isophthalamide] | > 0.501 µM | –
COc1cccc(CNC[C@@H](O)[C@H](Cc2ccccc2)NC(=O)c2cc(OC)cc(C(=O)N[C@H](C)c3ccccc3)c2)c1 [Compound 69, N1-((2S,3R)-3-hydroxy-4-(3-methoxybenzylamino)-1-phenylbutan-2-yl)-5-methoxy-N3-((R)-1-phenylethyl)isophthalamide] | – | > 0.501 µM
Cc1c(CNC[C@@H](O)[C@H](Cc2ccccc2)NC(=O)c2cc(C(=O)N[C@H](C)c3ccccc3)cc(N(C)S(C)(=O)=O)c2)cnn1C(C)(C)C [Compound 120, N1-((2S,3R)-4-((1-tert-butyl-5-methyl-1H-pyrazol-4-yl)methylamino)-3-hydroxy-1-phenylbutan-2-yl)-5-(N-methylmethylsulfonamido)-N3-((R)-1-phenylethyl)isophthalamide] | – | 0.301 to 0.5 µM
COc1cccc(CNC[C@@H](O)[C@H](Cc2ccccc2)NC(=O)c2cc(NO)cc(C(=O)N[C@H](C)c3ccccc3)c2)c1 [Compound 123, N1-((2S,3R)-3-hydroxy-4-(3-methoxybenzylamino)-1-phenylbutan-2-yl)-5-(hydroxyamino)-N3-((R)-1-phenylethyl)isophthalamide] | – | > 0.501 µM
COc1cccc(CNC[C@@H](O)[C@H](Cc2ccccc2)NC(=O)c2cccc(C(=O)N(C)Cc3nc(C)cs3)c2O)c1 [Compound 296, 2-hydroxy-N1-((2S,3R)-3-hydroxy-4-(3-methoxybenzylamino)-1-phenylbutan-2-yl)-N3-methyl-N3-((4-methylthiazol-2-yl)methyl)isophthalamide] | > 0.501 µM | –
COc1cccc(CNC[C@@H](O)[C@H](Cc2ccccc2)NC(=O)c2cc(O)cc(C(=O)N(C)Cc3nc(C)cs3)c2)c1 [Compound 38, 5-hydroxy-N1-((2S,3R)-3-hydroxy-4-(3-methoxybenzylamino)-1-phenylbutan-2-yl)-N3-methyl-N3-((4-methylthiazol-2-yl)methyl)isophthalamide] | – | < 0.3 µM

Further lines, results first:

Ki (fluorogenic substrate FS-2) | Ki (20 minutes pre-incubation) | SMILES
< 0.3 µM | – | Cc1csc(CN(C)C(=O)c2cc(C(=O)N[C@@H](Cc3ccccc3)[C@H](O)CNCc3cncc(C(C)C)c3)cc(-n3ccnc3)c2)n1 [Compound 300, N1-((2S,3R)-3-hydroxy-4-((5-isopropylpyridin-3-yl)methylamino)-1-phenylbutan-2-yl)-5-(1H-imidazol-1-yl)-N3-methyl-N3-((4-methylthiazol-2-yl)methyl)isophthalamide]
< 0.3 µM | – | CC(C)c1cncc(CNC[C@@H](O)[C@H](Cc2ccccc2)NC(=O)c2cccc(C(=O)N(C)Cc3nc(Br)cs3)c2)c1 [Compound 315, N1-((4-bromothiazol-2-yl)methyl)-N3-((2S,3R)-3-hydroxy-4-((5-isopropylpyridin-3-yl)methylamino)-1-phenylbutan-2-yl)-N1-methylisophthalamide]
< 0.3 µM | – | CC(C)c1cncc(CNC[C@@H](O)[C@H](Cc2ccccc2)NC(=O)c2cccc(C(=O)N(C)Cc3nc(CO)cs3)c2)c1 [Compound 316, N1-((2S,3R)-3-hydroxy-4-((5-isopropylpyridin-3-yl)methylamino)-1-phenylbutan-2-yl)-N3-((4-(hydroxymethyl)thiazol-2-yl)methyl)-N3-methylisophthalamide]
< 0.3 µM | – | Cc1csc(CN(C)C(=O)c2cc(C(=O)N[C@@H](Cc3ccccc3)[C@H](O)CNCc3cncc(C(C)C)c3)cc(-c3ccoc3)c2)n1 [Compound 303, 5-(furan-3-yl)-N1-((2S,3R)-3-hydroxy-4-((5-isopropylpyridin-3-yl)methylamino)-1-phenylbutan-2-yl)-N3-methyl-N3-((4-methylthiazol-2-yl)methyl)isophthalamide]
< 0.3 µM | – | CC(=O)c1cc(C(=O)N[C@@H](Cc2ccccc2)[C@H](O)CNCc2cncc(C(C)C)c2)cc(C(=O)N[C@H](C)c2ccccc2)c1 [Compound 308, 5-acetyl-N1-((2S,3R)-3-hydroxy-4-((5-isopropylpyridin-3-yl)methylamino)-1-phenylbutan-2-yl)-N3-((R)-1-phenylethyl)isophthalamide]
> 0.501 µM | – | Cc1csc(CN(C)C(=O)c2cccc(C(=O)N[C@@H](Cc3ccccc3)[C@H](O)CN(C)Cc3cncc(C(C)C)c3)c2)n1 [Compound 312, N1-((2S,3R)-3-hydroxy-4-(((5-isopropylpyridin-3-yl)methyl)(methyl)amino)-1-phenylbutan-2-yl)-N3-methyl-N3-((4-methylthiazol-2-yl)methyl)isophthalamide]
